Measurements taken from US9352050B2, “Processes for preparing peptide conjugates and linkers” (PFIZER INC., priority 2011, dated 2016).

How the values were obtained:
Type in all cases: physicochemical
[1] = Solubility and dissolution of peptide-linker conjugate and peptide in solvents and buffers
Text: The process for the formation of the drug substance 5 was originally described in U.S. Pat. No. 8,288,349 whose contents are hereby incorporated. The original process involved use of propylene glycol as the cosolvent in the conjugation process between peptide-linker 3 and the antibody h38C2. […] The more amorphous solid form is usually more soluble in different solvents and buffer solutions. […] During preparation of bioconjugate 5, it is desirable to have a conjugation mixture as a homogeneous solution at the beginning of the reaction in order to afford consistent reaction kinetics and more robust manufacturing process.
In the original process, propylene glycol was used as a cosolvent primarily to assist in the dispersion of the hydrophobic peptide-linker 3b in the aqueous histidine buffer solution at pH 6.5.

[2] = Degradation of peptide 3b in the conjugation mixture; settings: higher temperatures (30-35° C.) and higher pH (about pH7.5)
Experimental: In order to investigate the impact of different conjugation reaction variables on the reaction rate, product quality and yield, a set of experiments were executed using design of experiments (DOE) approach. Three parameters were chosen for evaluation: pH of the conjugation mixture, temperature of the conjugation and the ratio of peptide to starting antibody. Other parameters such as composition of the buffer solution (20 mM histidine buffer), antibody concentration (16.7 mg/mL) and concentration of DMSO in solution (7%) were kept constant. The centre point for each parameter was pH6.5, 20° C. and a peptide:antibody ratio of 2.4:1. The low levels tested were pH5.5, 5° C. and a ratio of 1.8, and the high levels were pH7.5, 35° C. and a ratio of 3.
Several experiments whose variable values were at the center-point of all the parameter ranges were selected to provide information on possible non-linear effects. The protocol for these experiments was briefly as follows: Peptide 3b (25 mg) was placed in a 20 mL vial equipped with a magnetic stir bar. The solid was dissolved in DMSO (2.1 mL). Histidine buffer (20 mM, pH 6.5, 2.1 mL) was added to the solution. […] The reaction was monitored for completion by SEC and HIC chromatography methods. […] The in-situ yield of 5 and time of reaction completion (hours) were evaluated by HIC and SEC chromatographic methods. […]

[3] = Storage stability of activated esters of acid 6 at room temperature; settings: solid, in contact with air
Text: This cyclic byproduct became the major constituent of the isolated solid after only a few days at RT. Since this side-reaction was envisioned to become even more problematic on scale due to the longer timelines for processing and isolation, a search for an alternative activating group for acid 6 was undertaken.

CSCC[C@H](NC(=O)[C@H](Cc1ccccc1)NC(=O)[C@H](CCC(N)=O)NC(=O)[C@H](CC(=O)O)NC(=O)[C@H](Cc1ccc(O)cc1)NC(=O)[C@H](CC(C)C)NC(=O)[C@@H](NC(=O)[C@H](CCCCNC(=O)COCC(=O)Nc1ccc(CCC(=O)N2CCC2=O)cc1)NC(=O)[C@H](CC(=O)O)NC(=O)[C@H](CCCCNC(C)=O)NC(=O)[C@H](CCC(=O)O)NC(=O)[C@H](CC(=O)O)NC(=O)[C@H](CC(C)C)NC(=O)[C@@H]1CCCN1C(=O)[C@H](CCC(N)=O)NC(=O)[C@H](Cc1ccc(O)cc1)NC(=O)[C@H](CCCCNC(C)=O)NC(=O)[C@H](CCC(N)=O)NC(C)=O)C(C)O)C(=O)N[C@@H](CC(C)C)C(=O)N[C@@H](CCC(N)=O)C(=O)N[C@@H](CCC(N)=O)C(=O)NCC(N)=O (stereo partly drawn) [3b]
Solubility in propylene glycol [1]: very low solubility
Solubility in solvents other than DMSO [1]: limited solubility
solubility ([1]; Solubility in DMSO): ≥ 100 mg/mL
Degradation rate [2]: occurs at a faster rate

CC(=O)NCCCC[C@H](N)C(=O)O [compound 2]
solubility ([1]; MeCN or MeOH): low solubility

O=C(COCC(=O)ON1C(=O)CCC1=O)Nc1ccc(CCC(=O)N2CCC2=O)cc1 [compound 8]
Storage stability [3]: increasing amounts of the second component were noticed after the solid had been set aside for only a few hours
